Data published in patent publication US12528796B2, “Modulators of RAS GTPase” (Tosk, Inc., priority 2019, dated 2026).

Each compound was assayed on SW620 cells (KRAS-G12V) (assay: Cell proliferation / cytotoxicity assay (CellTiter-Glo 2.0)). Conditions: Homo sapiens, SW-620, 72 h, SW620 cell line (KRAS-G12V), 72 hours incubation, luminescence (CellTiter-Glo 2.0); read-out: 5W620 IC50.
Format: cell-based
Experimental: Compounds are assayed for inhibition of cell proliferation and killing cancer cells. Cytotoxicity assays are conducted according to the following general procedure. SW620 cells (ATCC CCL-227) are maintained in DMEM Low Glucose (Corning 10-014-CV) media supplemented with 10% fetal bovine serum and 1% PenStrep and grown at 37° C. in 5% CO2. Cells are plated into 96 well flat bottom plates (2 million/plate, ˜20,000/well, 200 μL media/well). The cells are allowed to settle and adhere to the plate bottom overnight. Compounds are diluted in media from a 10 mM stock solution starting at 50 μM, using 2-fold dilutions, in a column in a 96-well plate. Media is removed from the plate containing cells and replaced with media containing diluted compounds. Plates are incubated 72 hours at 37° C. in 5% CO2. Plates were allowed to come to room temperature and 100 μL CellTiter-Glo 2.0 reagent (Promega, G924C) is added at room temperature. Plates are shaken for 2 minutes, then allowed to stand for 15 minutes. Luminescence is read with FLx800 (BioTek Instruments). Data is plotted with GraphPad Prizm 8.0.
Dose response curves for the cytotoxicity of exemplary compounds against SW620 (KRAS-G12V) and MIA PaCa-2 (KRAS-G12C) cell lines are shown in FIG. 1A-1J.

| SMILES | IC50 [µM] |
| --- | --- |
| Cc1cccc(-c2ccc3nc(NC4CCN(Cc5ccc(Cl)cc5)CC4)nc(C)c3c2)c1C [Compound 29] | < 5 |
| Cc1nc(NC2CCN(C(=O)c3ccccc3Cl)CC2)nc2ccc(-c3cccc4c3CCCC4)cc12 [Compound 36] | 5 to 10 |
| Cc1nc(NC2CCN(Cc3ccc(Cl)cc3)CC2)ncc1-c1cccc2c1CCCC2 [Compound 31] | < 5 |
| Cc1nc(NC2CCN(Cc3ccc(Cl)cc3)CC2)nc2ccc(-c3cccc4c3C(=O)CCC4)cc12 [Compound 32] | < 5 |
| Cc1nc(N[C@@H]2CC[C@H]3CC[C@@H](C2)N3C(=O)c2ccc(Cl)cc2Cl)nc2ccc(-c3cccc4c3CCCC4)cc12 [Compound 73] | 5 to 10 |
| Cc1ncccc1-c1ccc2nc(NC3CCN(Cc4ccc(Cl)cc4)CC3)nc(C)c2c1 [Compound 54] | < 5 |
| Cc1nc(NC2CCN(C(=O)c3ccc(Cl)cc3)CC2)nc2ccc(-c3cccc4c3CCNC4)cc12 [Compound 7] | 5 to 10 |
| Cc1nc(NC2CCN(Cc3ccc(Cl)cc3)CC2)nc2ccc(-c3cncc4[nH]ccc34)cc12 [Compound 58] | 5 to 10 |
| Cc1nc(N[C@@H]2CC[C@@H](Cc3ccc(Cl)cc3)NC2)nc2ccc(-c3cccc4c3CCCC4)cc12 [Compound 37] | 5 to 10 |
| Cc1nc(NC2CCN(C(=O)c3ccccc3Cl)[C@H](C)C2)nc2ccc(-c3cccc4c3OCCO4)cc12 (stereo partly drawn) [Compound 27] | < 5 |
| Cc1nc(NC2CCN(Cc3ccc(Cl)cc3)CC2)nc2ccc(-c3ccncc3C(N)=O)cc12 [Compound 45] | < 5 |
| Cc1nc(NC2CCN(Cc3ccc(Cl)cc3)CC2)nc2ccc(-c3ccnc(N4CCOCC4)c3F)cc12 [Compound 46] | 5 to 10 |
| Cc1nc(NC2CCN(C(=O)c3ccc(Cl)cc3)CC2)nc2ccc(-c3cccc4[nH]nc(C)c34)cc12 [Compound 18] | < 5 |
| COc1ncccc1-c1ccc2nc(NC3CCN(Cc4ccc(Cl)cc4)CC3)nc(C)c2c1 [Compound 55] | < 5 |
| COc1c(Cl)cc(F)cc1-c1ccc2nc(NC3CCN(Cc4ccc(Cl)cc4)CC3)nc(C)c2c1 [Compound 20] | < 5 |
| Cc1nc(NC2CCN(Cc3ccc(Cl)cc3)CC2)nc2ccc(-c3cccc4c3C(=O)CCO4)cc12 [Compound 63] | < 5 |
| Cc1ccc2ccc(F)c(-c3ccc4nc(NC5CCNCC5)nc(C)c4c3)c2n1 [Compound 60] | < 5 |
| Cc1ncccc1C(=O)N1CCC(Nc2nc(C)c3cc(-c4cccc5c4OCCO5)ccc3n2)CC1 [Compound 13] | < 5 |
| Cc1ncccc1-c1ccc2nc(NC3CCN(C(=O)c4ccc(Cl)cc4)CC3)nc(C)c2c1 [Compound 66] | 5 to 10 |
| COc1ccccc1C(=O)N1CCC(Nc2nc(C)c3cc(-c4cccc5c4OCCO5)ccc3n2)CC1 [Compound 17] | 5 to 10 |
| Cc1nc(N[C@@H]2CCN(C(=O)c3ccc(Cl)cc3)[C@H](C)C2)nc2ccc(-c3cccc4c3OCCO4)cc12 [Compound 12] | 5 to 10 |

| SMILES | IC50 [µM] |
| --- | --- |
| Cc1nc(NC2CCN(C(=O)c3ccc(Cl)cc3)CC2)nc2ccc(-c3cccc4c3CCCC4)cc12 [Compound 23] | < 5 |
| Cc1nc(NC2CCN(Cc3ccc(Cl)cc3)CC2)nc2ccc(-c3cccc4c3/C(=N/O)CCC4)cc12 [Compound 33] | < 5 |
| Cc1nc(NC2CCN(Cc3ccc(Cl)cc3)CC2)nc2ccc(-c3cccc4c3CCNC4)cc12 [Compound 4, N-(1-(4-chlorobenzyl)piperidin-4-yl)-4-methyl-6-(1,2,3,4-tetrahydroisoquinolin-5-yl)quinazolin-2-amine] | 5 to 10 |
| Cc1nc(NC2CCN(Cc3ccc(Cl)cc3)CC2)nc2ccc(-c3cncc4ccccc34)cc12 [Compound 59] | 5 to 10 |
| Cc1nc(NC2CCN(C(=O)c3ccc(Cl)cc3)CC2)nc2ccc(-c3cccc4c3OCCO4)cc12 [Compound 2, (4-chlorophenyl)(4-((6-(2,3-dihydrobenzo[b][1,4]dioxin-5-yl)-4-methylquinazolin-2-yl)amino)piperidin-1-yl)methanone] | 5 to 10 |
| Cc1nc(N[C@H]2CC[C@@H](NC3Cc4cccc(Cl)c4C3)CC2)nc2ccc(-c3cccc4c3OCCO4)cc12 (stereo partly drawn) [Compound 68] | < 5 |
| Cc1nc(NC2CCN(C(=O)c3ccccc3Cl)CC2)nc2ccc(-c3cccc4c3OCCO4)cc12 [Compound 16] | < 5 |
| Cc1nc(NC2CCN(Cc3ccc(Cl)cc3)CC2)nc2ccc(-c3cccc4c3OCC3(CC3)CO4)cc12 [Compound 41] | 5 to 10 |
| Cc1ncccc1-c1ccc2nc(N[C@H]3CC[C@@H](NC4Cc5cccc(Cl)c5C4)CC3)nc(C)c2c1 (stereo partly drawn) [Compound 69] | 5 to 10 |
| Cc1nccc(-c2ccc3nc(N[C@@H]4CC[C@H]5CC[C@@H](C4)N5Cc4ccc(Cl)cc4)nc(C)c3c2)c1Cl [Compound 74] | < 5 |
| Cc1nc(NC2CCN(Cc3ccc(Cl)cc3)CC2)nc2ccc(-c3cccnc3OC(C)C)cc12 [Compound 56] | < 5 |
| COc1cc(-c2ccc3nc(NC4CCN(Cc5ccc(Cl)cc5)CC4)nc(C)c3c2)c(Cl)cn1 [Compound 51] | < 5 |
| CC(=O)N1CCc2c(cccc2-c2ccc3nc(NC4CCN(C(=O)c5ccc(Cl)cc5)CC4)nc(C)c3c2)C1 [Compound 8] | 5 to 10 |
| COc1cnccc1-c1ccc2nc(NC3CCN(Cc4ccc(Cl)cc4)CC3)nc(C)c2c1 [Compound 49] | < 5 |
| Cc1nc(NC2CCN(C(=O)c3ccc(Cl)cc3)CC2)ncc1-c1ccccc1C(C)(O)c1ccccc1 (stereo not drawn) [Compound 38] | 5 to 10 |
| Cc1nc(NC2CCN(C(=O)c3ccc(Cl)cc3)[C@@H](C)C2)nc2ccc(-c3cccc4c3OCCO4)cc12 (stereo partly drawn) [Compound 11] | 5 to 10 |
| Cc1nc(NC2CCN(Cc3ccc(Cl)cc3)CC2)nc2ccc(-c3ccnc4ccc(Cl)cc34)cc12 [Compound 22] | 5 to 10 |
| Cc1nc(NC2CCN(Cc3ccc(Cl)cc3)CC2)nc2ccc(-c3cccc4c3CC(=O)CO4)cc12 [Compound 64] | < 5 |
| COc1ccccc1C(=O)N1CCC(Nc2nc(C)c3cc(-c4cccc5c4OCCO5)ccc3n2)C[C@H]1C (stereo partly drawn) [Compound 26] | 5 to 10 |
| Cc1nc(N[C@H]2CC[C@@H](N)CC2)nc2ccc(-c3cccc4c3OCC(=O)N4)cc12 [Compound 71] | 5 to 10 |
| Cc1ccc2[nH]ncc2c1-c1ccc2nc(NC3CCN(Cc4ccc(Cl)cc4)CC3)nc(C)c2c1 [Compound 24] | < 5 |

| SMILES | IC50 [µM] |
| --- | --- |
| COc1cccc(-c2ccc3nc(NC4CCN(Cc5ccc(Cl)cc5)CC4)nc(C)c3c2)c1OC [Compound 39] | < 5 |
| Cc1nc(N2CCC(N3Cc4ccccc4CC3=O)C2)nc2ccc(-c3cccc4c3OCCO4)cc12 (stereo not drawn) [Compound 9] | 5 to 10 |
| Cc1nccc(-c2ccc3nc(NC4CCN(Cc5ccc(Cl)cc5)CC4)nc(C)c3c2)c1Cl [Compound 52] | < 5 |
| Cc1nc(NC2CCN(C(=O)c3cccc(Cl)c3)[C@H](C)C2)nc2ccc(-c3cccc4c3OCCO4)cc12 (stereo partly drawn) [Compound 25] | 5 to 10 |
| COc1c(Cl)cccc1-c1ccc2nc(NC3CCN(C(=O)c4ccccc4Cl)CC3)nc(C)c2c1 [Compound 43] | 5 to 10 |
| Cc1nc(NC2CCN(Cc3ccc(Cl)cc3)CC2)nc2ccc(-c3cccc4c3NC(=O)CC4)cc12 [Compound 65] | < 5 |
| Cc1nc(N[C@H]2CC[C@@H](NC3Cc4cccc(Cl)c4C3)CC2)nc2ccc(Br)cc12 (stereo partly drawn) [Compound 67] | 5 to 10 |
| COc1nccc(-c2ccc3nc(NC4CCN(Cc5ccc(Cl)cc5)CC4)nc(C)c3c2)c1Cl [Compound 53] | < 5 |
| Cc1nc(NC2CCN(Cc3ccc(Cl)cc3)CC2)nc2ccc(-c3ccncc3C#N)cc12 [Compound 44] | 5 to 10 |
| Cc1ccc2ccc(F)c(-c3ccc4nc(NC5CCN(Cc6ccc(F)cc6)CC5)nc(C)c4c3)c2n1 [Compound 19] | 5 to 10 |
| Cc1nc(NC2CCN(C(=O)c3cccc(Cl)c3)CC2)nc2ccc(-c3cccc4c3OCCO4)cc12 [Compound 15] | 5 to 10 |
| Cc1nc(NC(C)c2cccnc2)nc2ccc(-c3cccc4c3CCCC4)cc12 (stereo not drawn) [Compound 34] | 5 to 10 |
| Cc1nc(NC2CCN(Cc3ccc(Cl)cc3)CC2)nc2ccc(-c3ccnc4[nH]ccc34)cc12 [Compound 42] | < 5 |
| Cc1nc(NC2CCN(Cc3ccc(Cl)cc3)CC2)nc2ccc(-c3cccc4c3NC(=O)CO4)cc12 [Compound 62] | < 5 |
| Cc1nc(NC2CCN(Cc3ccc(Cl)cc3)CC2)nc2ccc(-c3cccc4c3OCCO4)cc12 [Compound 3, N-(1-(4-chlorobenzyl)piperidin-4-yl)-6-(2,3-dihydrobenzo[b][1,4]dioxin-5-yl)-4-methylquinazolin-2-amine] | < 5 |
| Cc1nc(NC2CCN(Cc3ccc(Cl)cc3)CC2)nc2ccc(-c3cccc4c3CCCC4)cc12 [Compound 21] | < 5 |
| Cc1ccc2ccc(F)c(-c3ccc4nc(NC5CCN(C(=O)c6ccccc6Cl)CC5)nc(C)c4c3)c2n1 [Compound 61] | 5 to 10 |
| COc1c(Cl)cccc1-c1ccc2nc(NC3CCN(Cc4ccc(Cl)cc4)CC3)nc(C)c2c1 [Compound 28] | < 5 |
| Cc1nc(N[C@@H]2CC[C@H]3CC[C@@H](C2)N3C(=O)c2ccccc2Cl)nc2ccc(-c3cccc4c3CCCC4)cc12 [Compound 72] | 5 to 10 |
| Cc1nc(NC2CCN(C(=O)c3ccc(F)cc3)CC2)nc2ccc(-c3cccc4c3OCCO4)cc12 [Compound 14] | < 5 |
| Cc1nc(NC2CCN(Cc3ccc(Cl)cc3)CC2)nc2ccc(-c3ccnc(N4CCCCC4)c3F)cc12 [Compound 47] | < 5 |
